These results are taken from ChEMBL document CHEMBL1147402, “Synthesis and antitumour activity of pyrene-linked pyrrolo [2,1-c]benzodiazepine hybrids” (Bioorg Med Chem Lett, 2004).

Holding throughout (assay type): functional
Common to all, as to conditions: Homo sapiens, read-out: LC50 (the source's name)

One test concerns DU-145. In words: In vitro cytotoxicity against prostate DU-145 cell line.
Another test has as its system SR. In words: In vitro cytotoxicity against leukemia SR cell line.
Another test deals with HCC 2998. In words: In vitro cytotoxicity against colon […] cell line.
Another test relates to SF-539. In words: In vitro cytotoxicity against CNS SF-539 cell line.
The subject of another test is SNB-19. In words: In vitro cytotoxicity against CNS SNB-19 cell line.
For another test, the system named is NCI-H226. In words: In vitro cytotoxicity against non-small cell lung NCI-H226 cell line.
The test system of the next test is M14. In words: In vitro cytotoxicity against melanoma M14 cell line.
The test system of the next test is A498. In words: In vitro cytotoxicity against […] cell line.

Each structure is given as a SMILES string. A value given as a limit tells only on which side of the number the result lay.

Regarding `COc1cc2c(cc1OCCCC(=O)Nc1cc3cccc4ccc5cccc1c5c43)N=C[C@@H]1CCCN1C2=O`, the CC50 in the test with DU-145 was 240 nM; in the test with SR, 50 nM; in the test with HCC 2998, 10 nM; in the test on SF-539, 180 nM; with SNB-19 it was 420 nM; in the test on NCI-H226 it was less than 10 nM. For the same molecule, the CC50 with M14 was 50 nM; in the test on A498, 40 nM.
